The values that follow come from US8309558B2, “Compounds for the treatment of hepatitis C” (Bristol-Myers Squibb Company, priority 2008, dated 2012).

The subject of the first test is HCV replicon cells. In words: HCV replicon FRET / luciferase assay (96-well plates). The format is cell-based. The conditions noted are these: Hepatitis C virus, 24 h, Table 1d (class symbols); HCV replicon; read-out: EC50. The text has this:
FRET Assay Preparation. To perform the HCV FRET screening assay, 96-well cell culture plates were used. The FRET peptide (Anaspec, Inc.) (Taliani et al., Anal. Biochem. 1996, 240, 60-67) contains a fluorescence donor, EDANS, near one end of the peptide and an acceptor, DABCYL, near the other end. The fluorescence of the peptide is quenched by […] resonance energy transfer (RET) between the donor and the acceptor, but as the NS3 protease cleaves the peptide the products are released from RET quenching and the fluorescence of the donor becomes apparent. The assay reagent was made as follows: 5× cell Luciferase cell culture lysis reagent from Promega (#E153A) diluted to 1× with dH2O, NaCl added to 150 mM final, the FRET peptide diluted to 20 μM final from a 2 mM stock.
To prepare plates, HCV replicon cells, with or without a Renilla luciferase reporter gene, were trypsinized and placed into each well of a 96-well plate with titrated test compounds added in columns 3 through 12; columns 1 and 2 contained a control compound (HCV protease inhibitor), and the bottom row contained cells without compound. The plates were then placed in a CO2 incubator at 37° C.
Assays. Subsequent to addition of the test compounds described above (FRET Assay Preparation), at various times the plate was removed and Alamar blue solution (Trek Diagnostics, #00-100) was added per well as a measure of cellular toxicity. After reading in a Cytoflour 4000 instrument (PE Biosystems), plates were rinsed with PBS and then used for FRET assay by the addition of 30 ul of the FRET peptide assay reagent described above (FRET Assay Preparation) per well. The plate was then placed into the Cytoflour 4000 instrument which had been set to 340 excite/490 emission, automatic mode for 20 cycles and the plate read in a kinetic mode. Typically, the signal to noise using an endpoint analysis after the reads was at least three-fold. Alternatively, after Alamar blue reading, plates were rinsed with PBS, 50 ul of DMEM (high glucose) without phenol red was added and plates were then used for luciferase assay using the Promega Dual-Glo Luciferase Assay System.
Compound analysis was determined by quantification of the relative HCV replicon inhibition and the relative cytotoxicity values. To calculate cytoxicity values, the average Alamar Blue fluorescence signals from the control wells were set as 100% non-toxic. The individual signals in each of the compound test wells were then divided by the average control signal and multiplied by 100% to determine […]. To calculate the HCV replicon inhibition values, an average background value was obtained from the two wells containing the highest amount of HCV protease inhibitor at the end of the assay period. These numbers were similar to those obtained from naïve Huh-7 cells.
The background numbers were then subtracted from the average signal obtained from the control wells and this number was used as 100% activity. The individual signals in each of the compound test wells were then divided by the averaged control values after background subtraction and multiplied by 100% to determine percent activity. EC50 values for a protease inhibitor titration were calculated as the concentration which caused a 50% reduction in FRET or luciferase activity. The two numbers generated for the compound plate, percent cytoxicity and percent activity were used to determine compounds of interest for further analysis.
The EC50 is the concentration needed to bring the measured effect to its halfway point. `CNC(=O)c1c(-c2ccc(F)cc2)oc2ccc(-c3cc(C(=O)NC4(c5ocnc5C)CC4)ccc3C)cc12`: the EC50 is 1 to 250 nM. The same measure, in the same setting: the value for `CNC(=O)c1c(-c2ccc(F)cc2)oc2ccc(-c3cc(C(=O)NC4(c5ccccn5)CC4)c(OCCc4ccccc4)cc3C)cc12` was 1 to 250 nM; that for `CNC(=O)c1c(-c2ccc(F)cc2)oc2ccc(-c3cc(C(=O)NC4(c5ccccn5)CC4)c(OCCN4CCN(C)CC4)cc3C)cc12` was 1 to 250 nM; that for `CNC(=O)c1c(-c2ccc(F)cc2)oc2ccc(-c3cc(C(=O)NC4(c5ncc(C)cn5)CC4)c(OC)cc3C)c(F)c12` was 1 to 250 nM. The same measure, in the same setting: the value for `CNC(=O)c1c(-c2ccc(F)cc2)oc2ccc(-c3cc(C(=O)NC4(c5ccccn5)CC4)c(OCc4ccc(Cl)cc4)cc3C)cc12` was 1 to 250 nM. The same measure, in the same setting: for `CNC(=O)c1c(-c2ccc(F)cc2)oc2ccc(-c3cc(C(=O)NC4(c5ccccn5)CC4)c(OCc4ccccc4)cc3C)cc12` the value was 1 to 250 nM. In the case of `CNC(=O)c1c(-c2ccc(F)cc2)oc2ccc(-c3cc(C(=O)NC4(c5nc(C)cc(C)n5)CC4)ccc3C)cc12`, the EC50 fell in the range of 1 to 250 nM. The same measure, in the same setting: for `CNC(=O)c1c(-c2ccc(F)cc2)oc2ccc(-c3cc(C(=O)NC4(c5ccccn5)CC4)c(OCCC4CC4)cc3C)cc12` the value was 1 to 250 nM. Same read-out and setting: for `CNC(=O)c1c(-c2ccc(F)cc2)oc2ccc(-c3cc(C(=O)NC4(c5ncc(F)cn5)CC4)ccc3C)cc12` the value was 1 to 250 nM. On the same count and under the same terms, for `CNC(=O)c1c(-c2ccc(F)cc2)oc2ccc(-c3cc(C(=O)NC4(c5nccc(C)n5)CC4)ccc3C)cc12` the value was 1 to 250 nM; for `CCCCOc1cc(C)c(-c2ccc3oc(-c4ccc(F)cc4)c(C(=O)NC)c3c2)cc1C(=O)NC1(c2ccccn2)CC1`, 1 to 250 nM; for `CNC(=O)c1c(-c2ccc(F)cc2)oc2ccc(-c3cc(C(=O)NC4(c5ccccn5)CC4)c(OCCc4ccc(N(C)C)cc4)cc3C)cc12`, 1 to 250 nM.

For the compound `CNC(=O)c1c(-c2ccc(F)cc2)oc2ccc(-c3cc(C(=O)NC4(c5ccccn5)CC4)c(OCCN4CCOCC4)cc3C)cc12`, the EC50 was in the range of 1 to 250 nM. Turning to `CNC(=O)c1c(-c2ccc(F)cc2)oc2ccc(-c3cc(C(=O)NC4(c5ccccn5)CC4)c(OCCCN(C)C)cc3C)cc12`, the EC50 lay within 1 to 250 nM.

`CNC(=O)c1c(-c2ccc(F)cc2)oc2ccc(-c3cc(C(=O)NC4(c5ncc(C)cn5)CC4)ccc3C)c(F)c12`: the 50% effective concentration (EC50) was 1 to 250 nM. Still for that read-out and setting: the value for `CNC(=O)c1c(-c2ccc(F)cc2)oc2ccc(-c3cc(C(=O)NC4(c5nc(C)cc(C)n5)CC4)c(OC)cc3C)cc12` was 1 to 250 nM; that for `CNC(=O)c1c(-c2ccc(F)cc2)oc2ccc(-c3cc(C(=O)NC4(c5ccnnc5)CC4)ccc3C)cc12` was 1 to 250 nM.

As for `CNC(=O)c1c(-c2ccc(F)cc2)oc2ccc(-c3cc(C(=O)NC4(c5ncoc5C)CC4)ccc3C)cc12`, the EC50 lay in the range of 1 to 250 nM. The same measure, in the same setting: for `CNC(=O)c1c(-c2ccc(F)cc2)oc2ccc(-c3cc(C(=O)NC4(c5nccc(C)n5)CC4)ccc3C)c(F)c12` the value was 1 to 250 nM.

In the case of `CNC(=O)c1c(-c2ccc(F)cc2)oc2ccc(-c3cc(C(=O)NC4(c5cccnn5)CC4)c(OC)cc3C)c(F)c12`, the EC50 is 1 to 250 nM.

Turning to `CNC(=O)c1c(-c2ccc(F)cc2)oc2ccc(-c3cc(C(=O)NC4(c5cnccn5)CC4)ccc3C)cc12`, the EC50 was in the range of 1 to 250 nM. For `CNC(=O)c1c(-c2ccc(F)cc2)oc2ccc(-c3cc(C(=O)NC4(c5ncoc5C)CC4)c(OC)cc3C)cc12` [drawing 637], the EC50 was 1 to 250 nM. Regarding `CNC(=O)c1c(-c2ccc(F)cc2)oc2ccc(-c3cc(C(=O)NC4(c5cnccn5)CC4)ccc3C)c(F)c12`, the EC50 was 1 to 250 nM. Same read-out and setting: for `CNC(=O)c1c(-c2ccc(F)cc2)oc2ccc(-c3cc(C(=O)NC4(c5nccc(C)n5)CC4)c(OC)cc3C)cc12` the value was 1 to 250 nM. On the same count and under the same terms, the value for `CNC(=O)c1c(-c2ccc(F)cc2)oc2ccc(-c3cc(C(=O)NC4(c5ccccn5)CC4)c(OCc4cccnc4)cc3C)cc12` was 1 to 250 nM; that for `CNC(=O)c1c(-c2ccc(F)cc2)oc2ccc(-c3cc(C(=O)NC4(c5ccccn5)CC4)c(OCc4ccncc4)cc3C)cc12` was 1 to 250 nM; that for `CNC(=O)c1c(-c2ccc(F)cc2)oc2ccc(-c3cc(C(=O)NC4(c5ccccn5)CC4)c(OCCc4ccc(OC)cc4)cc3C)cc12` was 1 to 250 nM.

On to `CNC(=O)c1c(-c2ccc(F)cc2)oc2ccc(-c3cc(C(=O)NC4(c5ccccn5)CC4)c(OCCN(C)C)cc3C)cc12`, for which the EC50 is 1 to 250 nM. Same read-out and setting: for `CNC(=O)c1c(-c2ccc(F)cc2)oc2ccc(-c3cc(C(=O)NC4(c5ccccn5)CC4)c(OCC#N)cc3C)cc12` the value was 1 to 250 nM.

The test is the same for the next values; noted with them: Hepatitis C virus, 24 h, second table titled Table 1d (numbers); HCV replicon; read-out: EC50.
Regarding `CNC(=O)c1c(-c2ccc(F)cc2)oc2ccc(-c3cc(C(=O)NC4(c5ccncn5)CC4)ccc3C)cc12` [drawing 713], the concentration giving a half-maximal response (EC50) was 2 nM. For the compound `CNC(=O)c1c(-c2ccc(F)cc2)oc2ccc(-c3cc(C(=O)NC4(c5ncoc5C)CC4)c(OC)cc3C)cc12` [drawing 709], the EC50 was found to be 2 nM.

The same test, now with this note: Hepatitis C virus, Table 1a; HCV replicon; read-out: EC50.
With `CNC(=O)c1c(-c2ccc(F)cc2)oc2ccc(OCC(=O)NCc3ccco3)cc12`, the EC50 lay within 1000 to 10000 nM. For the compound `CNC(=O)c1c(-c2ccc(F)cc2)oc2ccc(OCC(=O)NCc3nc4ccccc4s3)cc12`, the EC50 fell in the range of 1000 to 10000 nM.

Still in this test, the particulars now being: Hepatitis C virus, Table 1b; HCV replicon; read-out: EC50.
For the compound `CCCn1cc(-c2ccc(-c3ccc4oc(-c5ccc(F)cc5)c(C(=O)NC)c4c3)cc2C(=O)NCC(C)C)cn1`, the EC50 is less than 250 nM. As for `CCOc1cccc(-c2ccc(-c3ccc4oc(-c5ccc(F)cc5)c(C(=O)NC)c4c3)cc2C(=O)NCC(C)C)c1`, the EC50 was less than 250 nM. On the same count and under the same terms, for `CNC(=O)c1c(-c2ccc(F)cc2)oc2ccc(-c3cccc(C(=O)NC(C)(C)c4cccc(C)n4)c3)cc12` the value was 250 to 1000 nM.

As to `CNC(=O)c1c(-c2ccc(F)cc2)oc2ccc(-c3cc(C(=O)NCC(C)C)ccc3OCCCN3C(=O)c4ccccc4C3=O)cc12`, the EC50 was more than 10000 nM. Consider `CNC(=O)c1c(-c2ccc(F)cc2)oc2cc(N(CCO)S(C)(=O)=O)c(-c3cccc(C(=O)NC(C)(C)c4ccncc4)c3)cc12`, for which the EC50 is less than 250 nM. In the case of `CNC(=O)c1c(-c2ccc(F)cc2)oc2ccc(-c3cc(C(=O)NC4(c5noc(C)n5)CC4)c(OC)cc3Cl)cc12`, the EC50 was less than 250 nM. On the same count and under the same terms, for `CNC(=O)c1c(-c2ccc(F)cc2)oc2ccc(-c3cc(C(=O)NC4(c5cn(C)cn5)CC4)c(OC)cc3C)cc12` the value was less than 250 nM; for `CNC(=O)c1c(-c2ccc(F)cc2)oc2ccc(-c3cc(C(=O)NC4(c5cncnc5)CC4)ccc3C)cc12`, less than 250 nM. On the same count and under the same terms, for `CNC(=O)c1c(-c2ccc(F)cc2)oc2ccc(-c3cc(C(=O)NC4(c5noc(-c6ccccc6)n5)CC4)ccc3C)cc12` the value was less than 250 nM; for `CNC(=O)c1c(-c2ccc(F)cc2)oc2cc(N(CCO)S(C)(=O)=O)c(-c3cccc(C(=O)NC(C)(C)c4ccnc(C)c4)c3)cc12`, less than 250 nM; for `CNC(=O)c1c(-c2ccc(F)cc2)oc2ccc(-c3cc(C(=O)NCC(C)C)ccc3OCCN(Cc3ccccc3)Cc3ccccc3)cc12`, 1000 to 10000 nM. Same read-out and setting: for `CNC(=O)c1c(-c2ccc(F)cc2)oc2ccc(-c3ccc(-c4cccc(C(=O)O)c4)c(C(=O)NCC(C)C)c3)cc12` the value was 1000 to 10000 nM. On to `CNC(=O)c1c(-c2ccc(F)cc2)oc2ccc(-c3ccc(-c4cccnc4)c(C(=O)NCC(C)C)c3)cc12`, for which the EC50 is less than 250 nM. Consider `CNC(=O)c1c(-c2ccc(F)cc2)oc2ccc(-c3cc(C(=O)NC4(c5ccccn5)CC4)ccc3C3CC3)cc12`, for which the EC50 is more than 10000 nM.

Take `CNC(=O)c1c(-c2ccc(F)cc2)oc2ccc(-c3cc(C(=O)NC4(c5nnc(-c6ccccc6OC)[nH]5)CC4)ccc3C)cc12`: the EC50 was less than 250 nM. Same read-out and setting: for `CNC(=O)c1c(-c2ccc(F)cc2)oc2ccc(-c3cc(C(=O)NC4(c5cc(C)on5)CC4)ccc3C)cc12` the value was less than 250 nM.

Regarding `CCCc1nnc(C2(NC(=O)c3ccc(C)c(-c4ccc5oc(-c6ccc(F)cc6)c(C(=O)NC)c5c4)c3)CC2)[nH]1`, the EC50 is less than 250 nM. `CNC(=O)c1c(-c2ccc(F)cc2)oc2ccc(-c3ccc(-c4ccoc4)c(C(=O)NCC(C)C)c3)cc12`: the EC50 was less than 250 nM.

The same test, now with this note: Table 1b; HCV replicon; read-out: EC50.
Turning to `CNC(=O)c1c(-c2ccc(F)cc2)oc2ccc(-c3cc(C(=O)NCC(C)C)ccc3OCCC3CNCCO3)cc12` (stereo not shown) [drawing 567], the EC50 is less than 250 nM.
